Reference: BigSolDB 2.1

Cc1cc(Cl)cc(C(=O)O)c1N
solubility (mole fraction)
Conditions	278.15 K	283.15 K	288.15 K	293.15 K	298.15 K	303.15 K	308.15 K	313.15 K	318.15 K	323.15 K
in acetone	0.0119	0.0131	0.0152	0.0175	0.0199	0.0227	0.0266	0.0315	0.0371	0.0436
in acetonitrile	0.00122	0.00126	0.00139	0.00154	0.00173	0.00198	0.0023	0.0027	0.00331	0.00423
in ethanol	0.00708	0.00736	0.00758	0.00807	0.00867	0.00934	0.0103	0.0114	0.0129	0.0144
in ethyl acetate	0.00636	0.0067	0.0071	0.00769	0.00829	0.00933	0.0105	0.012	0.0138	0.0162
in isopropanol	0.00728	0.00744	0.0077	0.00809	0.00856	0.00911	0.00977	0.0105	0.0114	0.0123
in methanol	0.00128	0.00157	0.00199	0.00241	0.00305	0.00375	0.00452	0.00556	0.00672	0.00815
in n-butanol	0.00553	0.0057	0.00609	0.00648	0.00729	0.0082	0.00931	0.0109	0.0131	0.016
in n-hexane	0.000105	0.000166	0.000245	0.000343	0.000443	0.000558	0.000685	0.000821	0.000959	0.00113
in n-propanol	0.00516	0.00552	0.00579	0.00646	0.0072	0.00803	0.00936	0.0109	0.0128	0.0153
